Laboratory results as given in US20180280504A1, “GLYCAN-INTERACTING COMPOUNDS AND METHODS OF USE” (SIAMAB THERAPEUTICS, INC., priority 2014, published 2018).

Tests used:
[1] = E3-STn allograft model, average weight of mice; type: in vivo, mouse
Experimental: Balb/c mice were used as part of the test system. 50 female mice were inoculated with E3-STn cells to cause STn-expressing tumor formation. Mice were maintained under pathogen-free conditions with irradiated feed and autoclaved water.
The average weight of mice in each treatment group was also determined on days 1, 4, 6, 8, 11, 13, 15, 18, 20, 22, 26, 27, 29, 32, 34, 36, 39 and 41 following the first administration of each test article (see the following Table). The percent gain or loss over initial weight values is listed in parentheses.

[2] = PAA-glycan ELISA, AcSTn-PAA; type: binding; settings: 200 ng/well PAA antigen; 1:5 dilutions from 1 μM
Experimental: (§1) 18D2 and 18C7 antibodies were further characterized by ELISA comprising antigens other than BSM. ELISAs were carried out according to Example 2, with the exception that ELISA plates were coated with biotinylated polyacrylamide (PAA) particles comprising either AcSTn (AcSTn-PAA), GcSTn (GcSTn-PAA) or Tn (Tn-PAA) as antigens. These particles present the antigens in a multivalent format. Briefly, 96-well ELISA plates were coated with 200 ng/well of each PAA antigen and blocked with PBS with 1% OVA. Antibodies were serially diluted at 1:5 in PBS with 1% OVA using an initial concentration of 1 μM. After blocking, antibodies were added to the plates and plates were incubated for 1.5 hours at room temperature. Binding of anti-STn antibodies was detected using a goat anti-mouse IgG-HRP conjugated antibody (Jackson Immunoresearch Laboratories, West Grove, Pa.). The reaction was developed by addition of HRP substrate and hydrogen peroxide. The reaction was then stopped by the addition of sulfuric acid (1.6 M). Optical densities were measured at 490 nm. A dose-response curve was generated using readings at each concentration tested and a non-linear regression curve was generated with four-parameter modeling to determine EC50 values for each antibody.

[3] = PAA-glycan ELISA, GcSTn-PAA; type: binding; settings: 200 ng/well PAA antigen; 1:5 dilutions from 1 μM
Experimental: as §1

[4] = system: ST6GalNAc 1 transfected MDA-MB-231 cells (MDA-STn+); assay: Flow cytometry-based analysis of antibody binding, STn+ cells; parameters: species or system human; settings: ST6GalNAc 1 transfected MDA-MB-231 cells; APC anti-mouse IgG
Experimental: Flow cytometry-based analysis is carried out to elucidate the curve-dose response for binding of antibodies to cell surface antigens. For these analyses, three cell lines are employed.
MDA-MB-231 cells are human breast cancer cells. They are grown in Earle's Minimum Essential Medium supplemented with 10% fetal calf serum (FCS), 100 μg/ml penicillin, 100 UI/ml streptomycin and 45 μg/ml gentamycin. MCF-7 cells are also human breast cancer cells and are grown under the same conditions as MDA-MB-231 cells. Stably transfected versions of MDA-MB-231 and MCF-7 cells (clone TAH3.P10 for MDA-MB-231 cells and clone A12.1 for MCF-7 cells) that over express GalNAc α2,6-sialyltransferase (ST6GalNAc 1,) are also cultured under the same conditions with the exception of an added 1 mg/ml of G418 to support cells expressing the transgene. ST6GalNAc 1 is an enzme capable of sialylating GalNAc. As a result of over expression, transfected cells express high levels of Neu5Ac-STn (see Julien, S. et al., Glycoconjugate journal. 2001. 18, 883-93; the contents of which are herein incorporated by reference in their entirety). E3 cells are murine breast cancer cells. They are cultured in Dulbecco's E4 medium with 10% FCS. Stably transfected versions of E3 cells expressing high levels of Neu5Gc-STn (E3-STn) are cultured with 600 μg/ml of G418 and 200 μg/ml hygromycin. During growth and maintenance of experimental cells, trypsin is not used for cell passaging.
For analysis, cells are harvested using StemPro Accutase (Life Technologies, Carlsbad, Calif.) and washed with PBS comprising 5% FBS before pelleting by light centrifugation. Cell numbers and viability are determined by trypan blue dye exclusion analysis and cell concentrations are adjusted to 5×10^6 cells/ml in PBS with 5% FBS. 50 μl of cells are added to each well of an assay plate. Cells are combined with 50 μl solutions of antibody being analyzed or control antibodies and incubated for 1 hour at 4° C. Cells are washed and pelleted twice with PBS with 5% FBS before being treated with 100 μl of PBS with 5% FBS comprising a 1:1,500 dilution of anti-mouse IgG (Southern Biotech, Birmingham, Ala.,) conjugated to allophycocyanin (APC). Cells are incubated for 30 min at 4° C. before washing and resuspending in 200 μl of propidium iodide (PI) diluted 1:1000 in PBS with 5% FBS. Treated cells are then subjects to flow cytometry analysis and 10,000 events are acquired for each sample.

CC(=O)O[C@H]1C(=O)[C@@]2(C)[C@H]([C@H](OC(=O)c3ccccc3)[C@]3(O)C[C@H](OC(=O)[C@H](O)[C@@H](NC(=O)c4ccccc4)c4ccccc4)C(C)=C1C3(C)C)[C@]1(OC(C)=O)CO[C@@H]1C[C@@H]2O [Paclitaxel, reference compound]
Average Weight ([1]; day 1 of study): 16.7 g | Average Weight ([1]; day 4 of study): 16.5 g | Average Weight ([1]; day 6 of study): 17 g | Average Weight ([1]; day 8 of study): 17.3 g | Average Weight ([1]; day 11 of study): 17.1 g | Average Weight ([1]; day 13 of study): 17.4 g | Average Weight ([1]; day 15 of study): 17.8 g | Average Weight ([1]; day 18 of study): 17.6 g | Average Weight ([1]; day 20 of study): 17.8 g | Average Weight ([1]; day 22 of study): 17.9 g | Average Weight ([1]; day 26 of study): 18.3 g | Average Weight ([1]; day 27 of study): 18.5 g | Average Weight ([1]; day 29 of study): 18.9 g | Average Weight ([1]; day 32 of study): 18.9 g | Average Weight ([1]; day 34 of study): 19.2 g | Average Weight ([1]; day 36 of study): 18.5 g | Average Weight ([1]; day 39 of study): 19.1 g | Average Weight ([1]; day 41 of study): 19.2 g

B1: 3F1: commercially available mouse anti-STn monoclonal antibody (SBH Sciences), IgG1; VH SEQ ID NO: 59, VL SEQ ID NO: 60 (antibody, V domains shown)
VH: QVQLQQSDAELVKPGASVKISCKASGYTFTDHAIHWVKQKPEQGLDWIGYISPGNGDIKYNEKFKDKVTLTADKSSSTACMHLNSLTSEDSAVYFCKRSLLALDYWGQGTTLTVSS
VL: DIVMTQSHKFMSTSVGDRVSITCKASQDVGTNIAWYQQKPGRSPKVLIYSASTRHTGVPDRFTGSGSGTDFTLTISNVQSEDLTDYFCQQYSSFPLTFGVGTKLELK
EC50 [2]: 0.152 µM | EC50 [3]: 0.0732 µM | EC50, flow cytometry binding to cell-associated STn [4]: 0.00242 µM
